{"source": "ChEMBL document CHEMBL1201862", "about": "“PubChem BioAssay data set” (2004)", "assay_in_all_cases": "DTP human tumour cell line panel, 48 h", "key": {"A498": {"test_system": "A498"}, "BT-549": {"test_system": "BT-549"}, "CCRF-CEM": {"test_system": "CCRF-CEM"}, "COLO 205": {"test_system": "COLO 205"}, "EKVX": {"test_system": "EKVX"}, "HCT-116": {"test_system": "HCT-116"}, "HT-29": {"test_system": "HT-29"}, "Hs-578T": {"test_system": "Hs-578T"}, "IGROV-1": {"test_system": "IGROV-1"}, "K562": {"test_system": "K562"}, "KM12": {"test_system": "KM12"}, "LOX IMVI": {"test_system": "LOX IMVI"}, "MDA-MB-231": {"test_system": "MDA-MB-231"}, "MDA-N": {"test_system": "MDA-N"}, "MOLT-4": {"test_system": "MOLT-4"}, "Malme-3M": {"test_system": "Malme-3M"}, "NCI-H226": {"test_system": "NCI-H226"}, "NCI-H460": {"test_system": "NCI-H460"}, "NCI-H522": {"test_system": "NCI-H522"}, "NCI/ADR-RES": {"test_system": "NCI/ADR-RES"}, "OVCAR-4": {"test_system": "OVCAR-4"}, "RPMI-8226": {"test_system": "RPMI-8226"}, "SF-268": {"test_system": "SF-268"}, "SF-295": {"test_system": "SF-295"}, "SF-539": {"test_system": "SF-539"}, "SK-OV-3": {"test_system": "SK-OV-3"}, "SN12C": {"test_system": "SN12C"}, "SNB-19": {"test_system": "SNB-19"}, "SR": {"test_system": "SR"}, "T47D": {"test_system": "T47D"}, "UACC-62": {"test_system": "UACC-62"}, "786-0": {"test_system": "786-0"}, "A549": {"test_system": "A549"}, "ACHN": {"test_system": "ACHN"}, "CAKI-1": {"test_system": "CAKI-1"}, "DU-145": {"test_system": "DU-145"}, "HCC 2998": {"test_system": "HCC 2998"}, "HCT-15": {"test_system": "HCT-15"}, "HL-60": {"test_system": "HL-60"}, "HOP-62": {"test_system": "HOP-62"}, "HOP-92": {"test_system": "HOP-92"}, "M14": {"test_system": "M14"}, "MCF7": {"test_system": "MCF7"}, "NCI-H23": {"test_system": "NCI-H23"}, "OVCAR-3": {"test_system": "OVCAR-3"}, "OVCAR-5": {"test_system": "OVCAR-5"}, "OVCAR-8": {"test_system": "OVCAR-8"}, "PC-3": {"test_system": "PC-3"}, "RXF 393": {"test_system": "RXF 393"}, "SK-MEL-28": {"test_system": "SK-MEL-28"}, "SK-MEL-2": {"test_system": "SK-MEL-2"}, "SK-MEL-5": {"test_system": "SK-MEL-5"}, "SNB-75": {"test_system": "SNB-75"}, "SW-620": {"test_system": "SW-620"}, "TK-10": {"test_system": "TK-10"}, "U-251": {"test_system": "U-251"}, "UACC-257": {"test_system": "UACC-257"}, "UO-31": {"test_system": "UO-31"}}, "note": "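Dose response: 5 concentrations. Exposure: 48 h. Format: 96-well plates. Endpoint: linear interpolation; highest concentration if not reached. GI50: concentration for 50% inhibition of growth.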 Calls of active or inactive are those of the source. No stated cut-off is given here; in the data, active = GI50 up to about 1.1 µM and inactive = higher."}
{"smiles": "COc1ccc2c3c(c4cc(OC)c(OC)cc4c2c1)CN1CCC[C@H]1[C@@H]3O", "note": "[TYLOPHORININE]", "values": [{"measurement": "GI50", "setting": "A498", "value": "< 0.0494 µM (active)"}, {"measurement": "GI50", "setting": "BT-549", "value": "0.493 µM (active)"}, {"measurement": "GI50", "setting": "CCRF-CEM", "value": "< 0.0359 µM (active)"}, {"measurement": "GI50", "setting": "COLO 205", "value": "0.039 µM (active)"}, {"measurement": "GI50", "setting": "EKVX", "value": "< 0.01 µM (active)"}, {"measurement": "GI50", "setting": "HCT-116", "value": "< 0.0445 µM (active)"}, {"measurement": "GI50", "setting": "HT-29", "value": "< 0.0289 µM (active)"}, {"measurement": "GI50", "setting": "Hs-578T", "value": "< 0.0441 µM (active)"}, {"measurement": "GI50", "setting": "IGROV-1", "value": "< 0.0508 µM (active)"}, {"measurement": "GI50", "setting": "K562", "value": "0.0422 µM (active)"}, {"measurement": "GI50", "setting": "KM12", "value": "< 0.0371 µM (active)"}, {"measurement": "GI50", "setting": "LOX IMVI", "value": "< 0.01 µM (active)"}, {"measurement": "GI50", "setting": "MDA-MB-231", "value": "< 48.9 nM (active)"}, {"measurement": "GI50", "setting": "MDA-N", "value": "< 0.0404 µM (active)"}, {"measurement": "GI50", "setting": "MOLT-4", "value": "< 0.0318 µM (active)"}, {"measurement": "GI50", "setting": "Malme-3M", "value": "0.249 µM (active)"}, {"measurement": "GI50", "setting": "NCI-H226", "value": "0.27 µM (active)"}, {"measurement": "GI50", "setting": "NCI-H460", "value": "< 0.0474 µM (active)"}, {"measurement": "GI50", "setting": "NCI-H522", "value": "0.29 µM (active)"}, {"measurement": "GI50", "setting": "NCI/ADR-RES", "value": "0.36 µM (active)"}, {"measurement": "GI50", "setting": "OVCAR-4", "value": "0.224 µM (active)"}, {"measurement": "GI50", "setting": "RPMI-8226", "value": "0.0676 µM (active)"}, {"measurement": "GI50", "setting": "SF-268", "value": "< 0.0453 µM (active)"}, {"measurement": "GI50", "setting": "SF-295", "value": "0.05 µM (active)"}, {"measurement": "GI50", "setting": "SF-539", "value": "0.253 µM (active)"}, {"measurement": "GI50", "setting": "SK-OV-3", "value": "0.0733 µM (active)"}, {"measurement": "GI50", "setting": "SN12C", "value": "< 0.0201 µM (active)"}, {"measurement": "GI50", "setting": "SNB-19", "value": "< 0.01 µM (active)"}, {"measurement": "GI50", "setting": "SR", "value": "< 0.0443 µM (active)"}, {"measurement": "GI50", "setting": "T47D", "value": "< 0.0404 µM (active)"}, {"measurement": "GI50", "setting": "UACC-62", "value": "< 48.2 nM (active)"}]}
{"smiles": "CO/N=C(\\C(=O)N(C)n1cnnc1)c1csc(NC(c2ccccc2)(c2ccccc2)c2ccccc2)n1", "values": [{"measurement": "GI50", "setting": "786-0", "value": "> 10 µM (inactive)"}, {"measurement": "GI50", "setting": "A498", "value": "> 10 µM (inactive)"}, {"measurement": "GI50", "setting": "A549", "value": "> 10 µM (inactive)"}, {"measurement": "GI50", "setting": "ACHN", "value": "> 10 µM (inactive)"}, {"measurement": "GI50", "setting": "BT-549", "value": "> 10 µM (inactive)"}, {"measurement": "GI50", "setting": "CAKI-1", "value": "> 10 µM (inactive)"}, {"measurement": "GI50", "setting": "CCRF-CEM", "value": "> 10 µM (inactive)"}, {"measurement": "GI50", "setting": "COLO 205", "value": "> 10 µM (inactive)"}, {"measurement": "GI50", "setting": "DU-145", "value": "> 10 µM (inactive)"}, {"measurement": "GI50", "setting": "EKVX", "value": "> 10 µM (inactive)"}, {"measurement": "GI50", "setting": "HCC 2998", "value": "> 10 µM (inactive)"}, {"measurement": "GI50", "setting": "HCT-116", "value": "> 10 µM (inactive)"}, {"measurement": "GI50", "setting": "HCT-15", "value": "> 10", "unit": "µM"}, {"measurement": "GI50", "setting": "HL-60", "value": "> 10 µM (inactive)"}, {"measurement": "GI50", "setting": "HOP-62", "value": "> 10 µM (inactive)"}, {"measurement": "GI50", "setting": "HOP-92", "value": "> 10 µM (inactive)"}, {"measurement": "GI50", "setting": "HT-29", "value": "> 10 µM (inactive)"}, {"measurement": "GI50", "setting": "Hs-578T", "value": "> 10 µM (inactive)"}, {"measurement": "GI50", "setting": "IGROV-1", "value": "> 10 µM (inactive)"}, {"measurement": "GI50", "setting": "K562", "value": "> 10 µM (inactive)"}, {"measurement": "GI50", "setting": "KM12", "value": "> 10 µM (inactive)"}, {"measurement": "GI50", "setting": "LOX IMVI", "value": "> 10 µM (inactive)"}, {"measurement": "GI50", "setting": "M14", "value": "> 10 µM (inactive)"}, {"measurement": "GI50", "setting": "MCF7", "value": "> 10 µM (inactive)"}, {"measurement": "GI50", "setting": "MDA-N", "value": "> 10 µM (inactive)"}, {"measurement": "GI50", "setting": "MOLT-4", "value": "> 10 µM (inactive)"}, {"measurement": "GI50", "setting": "Malme-3M", "value": "> 10 µM (inactive)"}, {"measurement": "GI50", "setting": "NCI-H226", "value": "> 10 µM (inactive)"}, {"measurement": "GI50", "setting": "NCI-H23", "value": "> 10 µM (inactive)"}, {"measurement": "GI50", "setting": "NCI-H460", "value": "> 10 µM (inactive)"}, {"measurement": "GI50", "setting": "NCI-H522", "value": "> 10 µM (inactive)"}, {"measurement": "GI50", "setting": "NCI/ADR-RES", "value": "> 10 µM (inactive)"}, {"measurement": "GI50", "setting": "OVCAR-3", "value": "> 10 µM (inactive)"}, {"measurement": "GI50", "setting": "OVCAR-4", "value": "> 10 µM (inactive)"}, {"measurement": "GI50", "setting": "OVCAR-5", "value": "> 10 µM (inactive)"}, {"measurement": "GI50", "setting": "OVCAR-8", "value": "> 10 µM (inactive)"}, {"measurement": "GI50", "setting": "PC-3", "value": "> 10 µM (inactive)"}, {"measurement": "GI50", "setting": "RPMI-8226", "value": "> 10 µM (inactive)"}, {"measurement": "GI50", "setting": "RXF 393", "value": "> 10 µM (inactive)"}, {"measurement": "GI50", "setting": "SF-268", "value": "> 10 µM (inactive)"}, {"measurement": "GI50", "setting": "SF-295", "value": "> 10 µM (inactive)"}, {"measurement": "GI50", "setting": "SF-539", "value": "> 10 µM (inactive)"}, {"measurement": "GI50", "setting": "SK-MEL-28", "value": "> 10 µM (inactive)"}, {"measurement": "GI50", "setting": "SK-MEL-2", "value": "> 10 µM (inactive)"}, {"measurement": "GI50", "setting": "SK-MEL-5", "value": "> 10 µM (inactive)"}, {"measurement": "GI50", "setting": "SK-OV-3", "value": "> 10 µM (inactive)"}, {"measurement": "GI50", "setting": "SN12C", "value": "> 10 µM (inactive)"}, {"measurement": "GI50", "setting": "SNB-19", "value": "> 10 µM (inactive)"}, {"measurement": "GI50", "setting": "SNB-75", "value": "> 10 µM (inactive)"}, {"measurement": "GI50", "setting": "SR", "value": "> 10 µM (inactive)"}, {"measurement": "GI50", "setting": "SW-620", "value": "> 10 µM (inactive)"}, {"measurement": "GI50", "setting": "T47D", "value": "> 10 µM (inactive)"}, {"measurement": "GI50", "setting": "TK-10", "value": "> 10 µM (inactive)"}, {"measurement": "GI50", "setting": "U-251", "value": "> 10 µM (inactive)"}, {"measurement": "GI50", "setting": "UACC-257", "value": "> 10 µM (inactive)"}, {"measurement": "GI50", "setting": "UO-31", "value": "> 10 µM (inactive)"}]}
